Results published in PMC3579865, “An Albumin-Derived Peptide Scaffold Capable of Binding and Catalysis” (PLoS ONE, 2013).

Molecular target: T1, human serum albumin (HSA) (Homo sapiens, UniProt P02768)
T1 construct: gene ALB; native full-length HSA, essentially fatty acid free; also measured on GST-HSA100 (A194 to E294)
Assay: tryptophan fluorescence quenching titration (Stern-Volmer and Hill analysis)
Type: binding

T1 sequence (P02768 25-609): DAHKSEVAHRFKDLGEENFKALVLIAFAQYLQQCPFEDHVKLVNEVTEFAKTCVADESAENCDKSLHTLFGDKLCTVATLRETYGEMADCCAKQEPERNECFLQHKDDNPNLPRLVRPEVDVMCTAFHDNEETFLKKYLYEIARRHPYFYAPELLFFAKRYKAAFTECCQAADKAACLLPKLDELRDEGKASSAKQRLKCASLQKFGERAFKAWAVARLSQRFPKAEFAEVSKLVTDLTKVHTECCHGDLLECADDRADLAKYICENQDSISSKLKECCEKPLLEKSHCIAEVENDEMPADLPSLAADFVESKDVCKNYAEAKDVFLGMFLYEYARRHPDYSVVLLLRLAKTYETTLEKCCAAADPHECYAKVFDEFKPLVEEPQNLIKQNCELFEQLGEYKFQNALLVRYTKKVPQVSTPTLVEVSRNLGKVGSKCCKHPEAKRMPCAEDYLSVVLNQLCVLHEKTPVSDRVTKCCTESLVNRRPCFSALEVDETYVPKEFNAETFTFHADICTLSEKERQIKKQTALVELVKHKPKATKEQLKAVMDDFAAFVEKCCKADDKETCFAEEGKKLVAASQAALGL

Efavirenz / HSA: 1.89±0.04 10^−4 molL^−1
SMILES: O=C1Nc2ccc(Cl)cc2[C@@](C#CC2CC2)(C(F)(F)F)O1 [2a, efavirenz]
